In patent US12220415B2, “WEE1 kinase inhibitors and methods of treating cancer using the same” (The Regents of the University of Colorado, A Body Corporate, priority 2018, dated 2025):
Like-named read-outs stand apart in the source and are kept apart here. Values belong to the molecule of their own block, whether it stands above or below them.

Tests used:
recombinant WEE1 kinase = recombinant WEE1 kinase (Homo sapiens (Human), UniProt P30291); assay: LanthaScreen Eu TR-FRET kinase binding assay for WEE1 kinase inhibitory activity; conditions: Kinase Tracer 178, 1 hour at room temperature
Description: A LanthaScreen™ kinase activity assay was conducted to assess WEE1 kinase inhibitory activity for compounds of this disclosure. […] All reagents were prepared as solutions in 1× kinase buffer A (Invitrogen) at 3× final desired concentration. […] Inhibitors were assayed in the final concentration range of 0.04 nM to 10 μM.

Daoy cells = assay: MTS cell viability assay in Daoy cells; assay type: cell-based, human; conditions: for EC50: read-out: EC50 cellular metabolic viability, Daoy; for activity at 0.6 µM: at 600 nM; for inhibition at 0.6 µM: 72 hr, @ 600 nM, read-out: percent cell inhibition, DAOY
Description: (§1) FIG. 1A is a dose-response study for ONS-76 cells treated with a concentration range of WEE1 inhibitors for 72 hours in an MTS assay. […] FIG. 1B is a dose-response study for Daoy cells treated with a concentration range of WEE1 inhibitors for 72 hours in an MTS assay.
(§2) To evaluate the effect of the WEE1 kinase inhibitors, Daoy cells and ONS-76 cells (human primary medulloblastoma cell lines) were treated with test compounds and cell growth was by MTS assay (FIGS. 1A and 1B). […] Cells were incubated for 72 hr with 50 μL of each diluted drug solution. Cell viability was measured by 2 hr incubation with 30 μL CellTiter 96® AQueous One Cell Proliferation reagent (Promega) and formazan concentration assessed through colorimetric analysis using a BioTek Synergy H1 plate reader (Absorption=490 nm).

ONS-76 cells = assay: MTS cell viability assay in ONS-76 cells; assay type: cell-based; conditions: Homo sapiens; for EC50: read-out: EC50 cellular metabolic viability, ONS-76; for IC50: read-out: Mean IC50, ONS-76; for inhibition at 1.16 µM: @ 1160 nM, read-out: percent cell inhibition, ONS-76
Description: as §1, §2

[1] = system: pCDK1 (Tyr15) in Daoy cell lysates; assay: pCDK1 (Tyr15) ELISA in Daoy cell lysates; assay type: cell-based, human; conditions: 24 hours, single 220 nM dose
Description: WEE1 inactivates CDC2 through selective phosphorylation of the Tyr15 residue of cyclin-dependent kinase 1 (CDK1) stabilizing the CDC2-cyclin B complex. Therefore, inhibition of WEE1 kinase activity will prevent the phosphorylation of its substrate CDK1 at Tyr15. […] Following drug incubation, the media was aspirated from cells before cells were trypsinized and resuspended in TES/SB buffer containing protease inhibitors. Cells were lysed on ice through sonication, and cell lysates were diluted with ELISA Pathscan® sample diluent to a final volume of 100 μL and protein concentration of 0.05 mg/ml prior to use. The relative concentration of p-CDK1 Tyr15 was determined using an enzyme-linked immunosorbent assay according to recommended protocol (Cell Signaling, ELISA Pathscan® phosphor-Cdc2 (Tyr15)).

medulloblastoma cells = conditions: Mol Cancer. 2014, 13:72, cited from earlier work
[2] = system: murine AML-expressing MLL-ENL, FLT3-ITD, and luciferase; assay: Murine AML model, disease progression by luciferase expression; assay type: in vivo; conditions: mice with AML, cytarabine alone
Description: In a second toxicity study, mice without leukemia were treated with cytarabine and/or a WEE1 inhibitor for 5 of 7 days for 3 consecutive weeks. […] The inventors then used an aggressive model of murine AML-expressing MLL-ENL, FLT3-ITD, and luciferase, to determine whether WEE1 inhibition would enhance the anti-leukemia effects of cytarabine.

[3] = Homo sapiens, Daoy cells, 72 hours, MTS assay
[4] = Homo sapiens, Daoy cells, MTS assay
[5] = ONS-76 cells, 72 hours, MTS assay, n=3, ±=S.D.

Sequence of recombinant WEE1 kinase (P30291 whole entry): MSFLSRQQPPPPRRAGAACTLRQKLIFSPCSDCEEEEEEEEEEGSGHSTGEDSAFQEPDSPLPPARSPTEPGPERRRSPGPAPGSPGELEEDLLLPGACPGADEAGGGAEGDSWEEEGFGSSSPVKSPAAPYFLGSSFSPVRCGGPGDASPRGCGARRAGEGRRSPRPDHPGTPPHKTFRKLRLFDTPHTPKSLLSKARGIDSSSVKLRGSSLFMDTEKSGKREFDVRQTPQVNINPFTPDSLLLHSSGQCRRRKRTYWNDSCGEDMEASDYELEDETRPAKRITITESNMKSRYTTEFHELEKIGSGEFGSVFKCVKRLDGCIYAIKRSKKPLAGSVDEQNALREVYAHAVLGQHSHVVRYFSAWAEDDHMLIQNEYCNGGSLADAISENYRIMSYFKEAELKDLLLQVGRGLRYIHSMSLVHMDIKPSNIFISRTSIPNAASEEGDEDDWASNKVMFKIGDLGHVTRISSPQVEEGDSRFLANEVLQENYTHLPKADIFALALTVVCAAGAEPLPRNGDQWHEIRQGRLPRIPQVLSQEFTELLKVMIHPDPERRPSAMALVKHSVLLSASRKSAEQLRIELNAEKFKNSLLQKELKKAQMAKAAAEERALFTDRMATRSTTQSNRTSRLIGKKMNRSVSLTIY

Structure (SMILES): C=CCn1c(=O)c2cnc(N)nc2n1-c1cccc(C(C)(C)O)n1
IC50 (recombinant WEE1 kinase): 17.7 nM

IC50 (recombinant WEE1 kinase): 13.6 nM
Structure (SMILES): C=CCn1c(=O)c2cnc(NCc3ccc(CC)cc3)nc2n1-c1cccc(C(C)(C)O)n1

IC50 (recombinant WEE1 kinase): 78.1 nM
Structure (SMILES): C=CCn1c(=O)c2cnc(Nc3cccc(C#N)c3)nc2n1-c1cccc(C(C)(C)O)n1

Structure (SMILES): C=CCn1c(=O)c2cnc(Nc3cccc(C(=O)N(C)C)c3)nc2n1-c1cccc(C(C)(C)O)n1
IC50 (recombinant WEE1 kinase): 27.3 nM

IC50 (recombinant WEE1 kinase): 89.7 nM
Structure (SMILES): COc1ccc(Cn2c(=O)c3cnc(Nc4ccc(N5CCN(C)CC5)cc4)nc3n2-c2cccc(C(C)(C)O)n2)cc1

IC50 (recombinant WEE1 kinase): 179 nM
Structure (SMILES): C=C(C)c1cccc(-n2c3nc(Nc4ccc(N5CCN(C)CC5)cc4)ncc3c(=O)n2C)n1

IC50 (recombinant WEE1 kinase): 10.4 nM
Structure (SMILES): C=CCn1c(=O)c2cnc(Nc3ccc(N4CCN(C)CC4)cc3)nc2n1-c1cccc(CO)c1

Structure (SMILES): C=CCn1c(=O)c2cnc(Nc3ccc(N4CCN(C)CC4)cc3)nc2n1-c1cccc(C(C)(C)O)n1 [AZD1775, 2-allyl-1-(6-(2-hydroxypropan-2-yl)pyridin-2-yl)-6-((4-(4-methylpiperazin-1-yl)phenyl)amino)-1,2-dihydro-3H-pyrazolo[3,4-d]pyrimidin-3-one, reference compound]
EC50 (Daoy cells; Homo sapiens, Daoy, 72 h): 150 nM
IC50 (Daoy cells; Homo sapiens, Daoy, 72 h, read-out: Mean IC50, DAOY): 378 nM
EC50 (Daoy cells; Daoy cells, 72 hours, MTS assay, n=3, ±=S.D.): 179 ± 16 nM
EC50 (ONS-76 cells; ONS-76, 72 h): 290 nM
IC50 (ONS-76 cells; ONS-76, 72 h): 221 nM
pCDK1(Tyr15) level compared to DMSO control [1]: decrease
activity in combination with cisplatin (medulloblastoma cells; medulloblastoma cells): synergistic activity
single agent effect in medulloblastoma (medulloblastoma cells; single agent): suppressed cell growth, induced apoptosis, and decreased tumor growth

Structure (SMILES): C=CCn1c(=O)c2cnc(Nc3ccc(N4CCN(C)CC4)cc3)nc2n1-c1cccc(C(C)(C)O)c1 [CM-169, 2-allyl-1-(3-(2-hydroxypropan-2-yl)phenyl)-6-((4-(4-methylpiperazin-1-yl)phenyl)amino)-1,2-dihydro-3H-pyrazolo[3,4-d]pyrimidin-3-one]
inhibition at 1.16 µM (ONS-76 cells; ONS-76 cells, 72 hr, MTS assay): 61%
pCDK1(Tyr15) level compared to DMSO control [1]: statistically the same as that for AZD1775

Structure (SMILES): C=CCn1c(=O)c2cnc(Nc3ccc(N4CCN(C)CC4)cc3)nc2n1-c1cccc(CO)n1 [CM-170, 2-allyl-1-(6-(hydroxymethyl)pyridin-2-yl)-6-((4-(4-methylpiperazin-1-yl)phenyl)amino)-1,2-dihydro-3H-pyrazolo[3,4-d]pyrimidin-3-one]
inhibition at 1.16 µM (ONS-76 cells; ONS-76 cells, 72 hr, MTS assay): 59%

Structure (SMILES): C=CCn1c(=O)c2cnc(Nc3ccc(OCCN(C)C)cc3)nc2n1-c1cccc(C(C)(C)O)n1 [CM-181, 2-allyl-6-((4-(2-(dimethylamino)ethoxy)phenyl)amino)-1-(6-(2-hydroxypropan-2-yl)pyridin-2-yl)-1,2-dihydro-3H-pyrazolo[3,4-d]pyrimidin-3-one]
activity at 0.6 µM (Daoy cells; [3]): 81%
inhibition at 0.6 µM (Daoy cells; [4]): 82%
EC50 (ONS-76 cells; [5]): 203 ± 40 nM
IC50 (ONS-76 cells; ONS-76 cells, 72 hr, MTS assay): 273 nM
pCDK1(Tyr15) level compared to DMSO control [1]: decrease

Structure (SMILES): C=CCn1c(=O)c2cnc(Nc3cccc(CN(C)C)c3)nc2n1-c1cccc(C(C)(C)O)n1 [KAC-014, 2-allyl-6-((3-((dimethylamino)methyl)phenyl)amino)-1-(6-(2-hydroxypropan-2-yl)pyridin-2-yl)-1,2-dihydro-3H-pyrazolo[3,4-d]pyrimidin-3-one]
inhibition at 1.16 µM (ONS-76 cells; ONS-76 cells, 72 hr, MTS assay): 40%

Structure (SMILES): C=CCn1c(=O)c2cnc(Nc3ccccc3)nc2n1-c1cccc(C(C)(C)O)n1 [KAC-017, 2-allyl-1-(6-(2-hydroxypropan-2-yl)pyridin-2-yl)-6-(phenylamino)-1,2-dihydro-3H-pyrazolo[3,4-d]pyrimidin-3-one]
inhibition at 1.16 µM (ONS-76 cells; ONS-76 cells, 72 hr, MTS assay): 32%

Structure (SMILES): C=CCn1c(=O)c2cnc(Nc3cccc(N(C)C)c3)nc2n1-c1cccc(C(C)(C)O)n1 [KAC-019, 2-allyl-6-((3-(dimethylamino)phenyl)amino)-1-(6-(2-hydroxypropan-2-yl)pyridin-2-yl)-1,2-dihydro-3H-pyrazolo[3,4-d]pyrimidin-3-one]
inhibition at 1.16 µM (ONS-76 cells; ONS-76 cells, 72 hr, MTS assay): 33%

Structure (SMILES): C=CCn1c(=O)c2cnc(Nc3ccc(CCN(C)C)cc3)nc2n1-c1cccc(C(C)(C)O)n1 [KAC-034, 2-allyl-6-((4-(2-(dimethylamino)ethyl)phenyl)amino)-1-(6-(2-hydroxypropan-2-yl)pyridin-2-yl)-1,2-dihydro-3H-pyrazolo[3,4-d]pyrimidin-3-one]
activity at 0.6 µM (Daoy cells; [3]): 84%
inhibition at 0.6 µM (Daoy cells; [4]): 83%
EC50 (ONS-76 cells; [5]): 252 ± 9 nM
IC50 (ONS-76 cells; ONS-76 cells, 72 hr, MTS assay): 495 nM
pCDK1(Tyr15) level compared to DMSO control [1]: decrease

Structure (SMILES): Nc1ccn([C@@H]2O[C@H](CO)[C@@H](O)[C@@H]2O)c(=O)n1 [cytarabine]
leukemia progression, measured by luciferase expression over time [2]: slowed the progression of the leukemia

Structure (SMILES): C=CCn1c(=O)c2cnc(Nc3ccccc3)nc2n1-c1cccc(C(C)(C)O)n1 [drawing 14]
IC50 (recombinant WEE1 kinase): 9.6 nM

Structure (SMILES): C=CCn1c(=O)c2cnc(Nc3cccc(CN(C)C)c3)nc2n1-c1cccc(C(C)(C)O)n1 [drawing 18]
IC50 (recombinant WEE1 kinase): 9.1 nM

IC50 (recombinant WEE1 kinase): 1.8 nM
Structure (SMILES): C=CCn1c(=O)c2cnc(Nc3ccc(CCN(C)C)cc3)nc2n1-c1cccc(C(C)(C)O)n1 [drawing 20]

Structure (SMILES): C=CCn1c(=O)c2cnc(Nc3ccc(OCCN(C)C)cc3)nc2n1-c1cccc(C(C)(C)O)n1 [drawing 21]
IC50 (recombinant WEE1 kinase): 7.8 nM
